Laboratory results: article PMC3448010 (Biochemistry, 2012)
pKd: −log10 of the molar value. Several values for one entry are separate records, joined by “and”; a condition that tells them apart may be missing. Equal entries are not always repeated. Where two headings read alike, the source gives them in different places.

What was measured:
SULT2A1 [1] = biological target: T1, SULT2A1 (Homo sapiens, UniProt Q06520); assay: Initial-rate kinetics of raloxifene and DHEA sulfation; conditions: for Kia: co-substrate extrapolated to zero; for Km: 25 °C, pH 7.4, sequential Bi-Bi fit
T1 sequence (Q06520 1-285): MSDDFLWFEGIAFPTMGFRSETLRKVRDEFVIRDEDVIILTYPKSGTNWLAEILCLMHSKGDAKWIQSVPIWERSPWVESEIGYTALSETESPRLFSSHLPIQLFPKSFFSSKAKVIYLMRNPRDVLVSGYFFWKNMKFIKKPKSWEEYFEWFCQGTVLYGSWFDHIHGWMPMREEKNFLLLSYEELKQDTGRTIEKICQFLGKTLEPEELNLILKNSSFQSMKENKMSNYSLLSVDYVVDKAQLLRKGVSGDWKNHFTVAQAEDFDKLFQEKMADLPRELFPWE

[2] = cited from earlier work
SULT2A1 [3] = biological target: T1, SULT2A1; assay: Presteady state
SULT2A1 [4] = biological target: T1, SULT2A1; assay: Equilibrium ligand binding monitored by intrinsic enzyme fluorescence
SULT2A1 [5] = biological target: T1, SULT2A1; conditions: read-out: typical Km; cited from earlier work

C[C@]12CC[C@H](O)CC1=CC[C@@H]1[C@@H]2CC[C@]2(C)C(=O)CC[C@@H]12 [DHEA, 5-dehydroepiandrosterone]
kcat/Km relative to raloxifene (SULT2A1 [1]; DHEA vs raloxifene): 135 fold
Kia (SULT2A1 [1]; DHEA/PAPS substrate pair): 1.8 (0.1) μM
positive synergy in the interaction with PAPS (SULT2A1 [1]; from kinetic constants): 1.4 fold
sulfated in-vivo [2]: > 99%
pKd (SULT2A1 [3]): 5.96
koff (SULT2A1 [3]; enzyme species E· (unliganded)): 2.1 s⁻¹
koff (SULT2A1 [3]; enzyme species PAPS·E·): 3 s⁻¹
pKd (SULT2A1 [4]; Kd, enzyme species E· (unliganded)): 6.00
pKd (SULT2A1 [4]; Kd, enzyme species PAP·E·, global fit of titrations at five PAP concentrations): 5.96
synergy between PAP and acceptor (SULT2A1 [4]; global fit, five PAP concentrations): 1.1 (± 0.2)

Nc1ncnc2c1ncn2[C@@H]1O[C@H](COP(=O)(O)O)[C@@H](OP(=O)(O)O)[C@H]1O [PAP, 3′, 5′-diphosphoadenosine]
pKd (SULT2A1 [4]; Kd, enzyme species DHEA·E·): 6.68
pKd (SULT2A1 [4]; Kd, enzyme species Ral·E·): 5.22

Nc1ncnc2c1ncn2[C@@H]1O[C@H](COP(=O)(O)OS(=O)(=O)O)[C@@H](OP(=O)(O)O)[C@H]1O [PAPS, 3′-phosphoadenosine 5′-phosphosulfate]
kcat (SULT2A1 [1]; DHEA/PAPS substrate pair): 0.7 (0.03) sec^−1
Km (SULT2A1 [1]; DHEA/PAPS substrate pair): 0.39 µM
Kia (SULT2A1 [1]; DHEA/PAPS substrate pair): 0.47 (0.06) μM
kcat (SULT2A1 [1]; RAL/PAPS substrate pair): 0.10 (0.01) sec^−1
Km (SULT2A1 [1]; RAL/PAPS substrate pair): 5.9 µM
Kia (SULT2A1 [1]; RAL/PAPS substrate pair): 0.24 (0.04) μM
Km (SULT2A1 [5]): ~300 nM
koff (SULT2A1 [3]; enzyme species DHEA·E·): 2.1 s^−1 and 1.9 (0.2) s^−1
koff (SULT2A1 [3]; enzyme species E· (unliganded)): 2.1 s^−1 and 2.3 (0.3) s^−1
koff (SULT2A1 [3]; enzyme species RAL·E·, raloxifene 50 μM): 50 (2) s^−1
faster escape from PAPS·E·raloxifene than from PAPS·E and PAPS·E·DHEA (SULT2A1 [3]; off-rate constants): 24 fold
weakening in PAPS affinity with raloxifene bound (SULT2A1 [3]; raloxifene prevents gate closure): 21 fold
pKd (SULT2A1 [3]; read-out: Kd (koff/kon), enzyme species DHEA·E·): 6.62
pKd (SULT2A1 [3]; read-out: Kd (koff/kon), enzyme species E· (unliganded)): 6.57
pKd (SULT2A1 [3]; read-out: Kd (koff/kon), enzyme species RAL·E·, raloxifene 50 μM): 5.22
pKd (SULT2A1 [4]; enzyme species E· (unliganded)): 6.55
